Measured values reported in ChEMBL document CHEMBL1201861, “Genomics of Drug Sensitity in Cancer screening data, Wellcome Trust Sanger Institute”.

Experiments:
Capan-2 = assay: cells; assay type: functional, cell-based, Homo sapiens; conditions: Homo sapiens, Capan-2;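 also: Capan-2 cell growth inhibition, read out with a viability assay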
Description: SANGER: Inhibition of human Capan-2 cell growth in a cell viability assay.

D-542MG = assay: cells; assay type: functional, cell-based, Homo sapiens; conditions: Homo sapiens, D-542MG
Description: SANGER: Inhibition of human D-542MG cell growth in a cell viability assay.

DBTRG-05MG = assay: cells; assay type: functional, cell-based, Homo sapiens; conditions: Homo sapiens, DBTRG-05MG;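 also: cell viability assay measuring growth inhibition of human DBTRG-05MG cells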
Description: SANGER: Inhibition of human DBTRG-05MG cell growth in a cell viability assay.

EGI-1 = assay: cells; assay type: functional, cell-based, Homo sapiens; conditions: Homo sapiens, EGI-1;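 also: cell viability readout used to gauge growth inhibition of EGI-1 cells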
Description: SANGER: Inhibition of human EGI-1 cell growth in a cell viability assay.

FTC-133 = assay: cells; assay type: functional, cell-based, Homo sapiens; conditions: Homo sapiens, FTC-133
HCC1395 = assay: cells; assay type: functional, cell-based, Homo sapiens; conditions: Homo sapiens, HCC1395;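 also: growth inhibition of HCC1395 cells, read out by a cell viability assay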
Description: SANGER: Inhibition of human HCC1395 cell growth in a cell viability assay.

HCC1806 = assay: cells; assay type: functional, cell-based, Homo sapiens; conditions: Homo sapiens, HCC1806;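 also: growth inhibition of the cancer cell line, determined with a cell viability assay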
Description: SANGER: Inhibition of human HCC1806 cell growth in a cell viability assay.

HN = assay: cells; assay type: functional, cell-based, Homo sapiens; conditions: Homo sapiens, HN
Description: SANGER: Inhibition of human HN cell growth in a cell viability assay.

HuP-T3 = assay: cells; assay type: functional, cell-based, Homo sapiens; conditions: Homo sapiens, HuP-T3;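 also: HuP-T3 cell growth inhibition, read out with a cell viability assay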
Description: SANGER: Inhibition of human HuP-T3 cell growth in a cell viability assay.

JIYOYE = assay: cells; assay type: functional, cell-based, Homo sapiens; conditions: Homo sapiens, JIYOYE
Description: SANGER: Inhibition of human JiyoyeP-2003 cell growth in a cell viability assay.

K052 = assay: cells; assay type: functional, cell-based, Homo sapiens; conditions: Homo sapiens, K052;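 also: Read-out from a cell viability assay, IC50 reflecting suppression of K052 cell growth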
Description: SANGER: Inhibition of human K052 cell growth in a cell viability assay.

KU-19-19 = assay: cells; assay type: functional, cell-based, Homo sapiens; conditions: Homo sapiens, KU-19-19
Description: SANGER: Inhibition of human KU-19-19 cell growth in a cell viability assay.

KYSE-270 = assay: cells; assay type: functional, cell-based, Homo sapiens; conditions: Homo sapiens, KYSE-270;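 also: cell growth inhibition measured with a viability assay in the human KYSE-270 line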
Description: SANGER: Inhibition of human KYSE-270 cell growth in a cell viability assay.

KYSE-510 = assay: cells; assay type: functional, cell-based, Homo sapiens; conditions: Homo sapiens, KYSE-510;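 also: cell viability readout used to measure how strongly growth of the cell line is suppressed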
Description: SANGER: Inhibition of human KYSE-510 cell growth in a cell viability assay.

LOUCY = assay: cells; assay type: functional, cell-based, Homo sapiens; conditions: Homo sapiens, LOUCY;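 also: growth inhibition of human LOUCY cells, read out with a cell viability assay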
Description: SANGER: Inhibition of human LOUCY cell growth in a cell viability assay.

M059J = assay: cells; assay type: functional, cell-based, Homo sapiens; conditions: Homo sapiens, M059J;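 also: growth inhibition of M059J cells, read out with a cell viability assay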
Description: SANGER: Inhibition of human M059J cell growth in a cell viability assay.

MDA-MB-157 = assay: cells; assay type: functional, cell-based, Homo sapiens; conditions: Homo sapiens, MDA-MB-157
Description: SANGER: Inhibition of human MDA-MB-157 cell growth in a cell viability assay.

ME-180 = assay: cells; assay type: functional, cell-based, Homo sapiens; conditions: Homo sapiens, ME-180;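 also: cell viability assay measuring growth inhibition of ME-180 cells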
Description: SANGER: Inhibition of human ME-180 cell growth in a cell viability assay.

MEL-JUSO = assay: cells; assay type: functional, cell-based, Homo sapiens; conditions: Homo sapiens, MEL-JUSO;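 also: growth inhibition of human MEL-JUSO cells, read out with a cell viability assay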
Description: SANGER: Inhibition of human MEL-JUSO cell growth in a cell viability assay.

NCI-H1623 = assay: cells; assay type: functional, cell-based, Homo sapiens; conditions: Homo sapiens, NCI-H1623;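 also: cell viability assay used as the read-out for growth inhibition of NCI-H1623 cells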
Description: SANGER: Inhibition of human NCI-H1623 cell growth in a cell viability assay.

NCI-H2227 = assay: cells; assay type: functional, cell-based, Homo sapiens; conditions: Homo sapiens, NCI-H2227;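 also: growth inhibition of the human cell line, read out with a cell viability assay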
Description: SANGER: Inhibition of human NCI-H2227 cell growth in a cell viability assay.

NCI-H2347 = assay: cells; assay type: functional, cell-based, Homo sapiens; conditions: Homo sapiens, NCI-H2347;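 also: growth inhibition of the cell line, read out with a cell viability assay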
Description: SANGER: Inhibition of human NCI-H2347 cell growth in a cell viability assay.

NCI-H810 = assay: cells; assay type: functional, cell-based, Homo sapiens; conditions: Homo sapiens, NCI-H810;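 also: IC50 reflects inhibition of cancer cell line growth, read out with a cell viability assay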
Description: SANGER: Inhibition of human NCI-H810 cell growth in a cell viability assay.

OAW-28 = assay: cells; assay type: functional, cell-based, Homo sapiens; conditions: Homo sapiens, OAW-28;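 also: growth inhibition of OAW-28 cells, read out with a cell viability assay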
Description: SANGER: Inhibition of human OAW-28 cell growth in a cell viability assay.

OE19 = assay: cells; assay type: functional, cell-based, Homo sapiens; conditions: Homo sapiens, OE19;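 also: growth inhibition of OE19 cells, measured through a cell viability read-out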
Description: SANGER: Inhibition of human OE19 cell growth in a cell viability assay.

P31-FUJ = assay: cells; assay type: functional, cell-based, Homo sapiens; conditions: Homo sapiens, P31-FUJ;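 also: growth inhibition of P31-FUJ cells, read out with a viability assay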
Description: SANGER: Inhibition of human P31-FUJ cell growth in a cell viability assay.

PA-1 = assay: cells; assay type: functional, cell-based, Homo sapiens; conditions: Homo sapiens, PA-1;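 also: IC50 for suppression of PA-1 cell proliferation, determined with a cell viability read-out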
Description: SANGER: Inhibition of human PA-1 cell growth in a cell viability assay.

RPMI-6666 = assay: cells; assay type: functional, cell-based, Homo sapiens; conditions: Homo sapiens, RPMI-6666
Description: SANGER: Inhibition of human RPMI-6666 cell growth in a cell viability assay.

SAS = assay: cells; assay type: functional, cell-based, Homo sapiens; conditions: Homo sapiens, SAS;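 also: growth inhibition of SAS cells, read out with a cell viability assay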
Description: SANGER: Inhibition of human SAS cell growth in a cell viability assay.

SNU-423 = assay: cells; assay type: functional, cell-based, Homo sapiens; conditions: Homo sapiens, SNU-423
Description: SANGER: Inhibition of human SNU-423 cell growth in a cell viability assay.

SW626 = assay: cells; assay type: functional, cell-based, Homo sapiens; conditions: Homo sapiens, SW626;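 also: growth inhibition of SW626 cells, measured with a cell viability assay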
Description: SANGER: Inhibition of human SW626 cell growth in a cell viability assay.

SW948 = assay: cells; assay type: functional, cell-based, Homo sapiens; conditions: Homo sapiens, SW948;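 also: growth inhibition of SW948 cells, read out with a cell viability assay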
Description: SANGER: Inhibition of human SW948 cell growth in a cell viability assay.

SiHa = assay: cells; assay type: functional, cell-based, Homo sapiens; conditions: Homo sapiens, SiHa;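 also: Viability-based readout of growth inhibition in SiHa cells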
Description: SANGER: Inhibition of human SiHa cell growth in a cell viability assay.

T-24 = assay: cells; assay type: functional, cell-based, Homo sapiens; conditions: Homo sapiens, T-24;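 also: growth inhibition of T-24 cells, read out with a cell viability assay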
Description: SANGER: Inhibition of human T-24 cell growth in a cell viability assay.

A204 = assay: cells; assay type: functional, cell-based, Homo sapiens; conditions: Homo sapiens, A204;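 also: growth inhibition of human A204 cells, read out with a cell viability assay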
Description: SANGER: Inhibition of human A204 cell growth in a cell viability assay.

A-375 = assay: cells; assay type: functional, cell-based, Homo sapiens; conditions: Homo sapiens, A-375;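 also: growth inhibition of A375 cells, read out with a cell viability assay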
Description: SANGER: Inhibition of human A375 cell growth in a cell viability assay.

AU565 = assay: cells; assay type: functional, cell-based, Homo sapiens; conditions: Homo sapiens, AU565;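 also: cell viability assay measuring growth inhibition of human AU565 cells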
Description: SANGER: Inhibition of human AU565 cell growth in a cell viability assay.

ASPC1 = assay: cells; assay type: functional, cell-based, Homo sapiens; conditions: Homo sapiens, ASPC1;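 also: growth inhibition of AsPC-1 cells, read out with a cell viability assay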
Description: SANGER: Inhibition of human AsPC-1 cell growth in a cell viability assay.

BC-3 = assay: cells; assay type: functional, cell-based, Homo sapiens; conditions: Homo sapiens, BC-3;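 also: cell viability assay measuring growth inhibition of human BC-3 cells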
Description: SANGER: Inhibition of human BC-3 cell growth in a cell viability assay.

BL-70 = assay: SANGER: Inhibition of human BL-70 cell growth in a cell viability assay.; assay type: functional, cell-based; conditions: Homo sapiens, BL-70
C32 = assay: cells; assay type: functional, cell-based, Homo sapiens; conditions: Homo sapiens, C32;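 also: cell viability assay, with IC50 reflecting inhibition of C32 cell growth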
Description: SANGER: Inhibition of human C32 cell growth in a cell viability assay.

CA46 = assay: cells; assay type: functional, cell-based, Homo sapiens; conditions: Homo sapiens, CA46;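 also: growth inhibition of human CA46 cells, read out by a cell viability assay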
Description: SANGER: Inhibition of human CA46 cell growth in a cell viability assay.

CAL-54 = assay: cells; assay type: functional, cell-based, Homo sapiens; conditions: Homo sapiens, CAL-54;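 also: growth inhibition of CAL-54 cells, read out by a viability measurement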
Description: SANGER: Inhibition of human CAL-54 cell growth in a cell viability assay.

UACC-62 = assay: cells; assay type: functional, cell-based, Homo sapiens; conditions: Homo sapiens, UACC-62;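 also: growth inhibition of human UACC-62 cells, read out by a cell viability assay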
Description: SANGER: Inhibition of human UACC-62 cell growth in a cell viability assay.

VMRC-RCZ = assay: cells; assay type: functional, cell-based, Homo sapiens; conditions: Homo sapiens, VMRC-RCZ
Description: SANGER: Inhibition of human VMRC-RCZ cell growth in a cell viability assay.

WM-115 = assay: cells; assay type: functional, cell-based, Homo sapiens; conditions: Homo sapiens, WM-115
Description: SANGER: Inhibition of human WM-115 cell growth in a cell viability assay.

COLO-678 = assay: cells; assay type: functional, cell-based, Homo sapiens; conditions: Homo sapiens, COLO-678
Description: SANGER: Inhibition of human COLO-678 cell growth in a cell viability assay.

**Q.** What does the source list for `CCC/C=C/C=C/C(=O)O[C@H]1/C(=C/C(=O)OC)C[C@H]2C[C@H]([C@@H](C)O)OC(=O)C[C@H](O)C[C@@H]3C[C@H](OC(C)=O)C(C)(C)[C@](O)(C[C@@H]4C/C(=C/C(=O)OC)C[C@H](/C=C/C(C)(C)[C@]1(O)O2)O4)O3` [BRYOSTATIN 1]?
**A.** IC50 (Capan-2): > 0.008 µM; IC50 (D-542MG): 7.56 nM; IC50 (DBTRG-05MG): > 0.008 µM; IC50 (EGI-1): > 0.008 µM; IC50 (FTC-133): > 0.008 µM; IC50 (HCC1395): > 0.008 µM; IC50 (HCC1806): > 0.008 µM; IC50 (HN): > 0.008 µM; IC50 (HuP-T3): > 0.008 µM; IC50 (JIYOYE): > 0.008 µM; IC50 (K052): > 0.008 µM; IC50 (KU-19-19): > 0.008 µM; IC50 (KYSE-270): > 0.008 µM; IC50 (KYSE-510): > 0.008 µM; IC50 (LOUCY): > 0.008 µM; IC50 (M059J): 2 nM; IC50 (MDA-MB-157): > 0.008 µM; IC50 (ME-180): > 0.008 µM; IC50 (MEL-JUSO): > 0.008 µM; IC50 (NCI-H1623): > 0.008 µM; IC50 (NCI-H2227): > 0.008 µM; IC50 (NCI-H2347): > 0.008 µM; IC50 (NCI-H810): > 0.008 µM; IC50 (OAW-28): > 0.008 µM; IC50 (OE19): > 0.008 µM; IC50 (P31-FUJ): > 0.008 µM; IC50 (PA-1): > 0.008 µM; IC50 (RPMI-6666): > 0.008 µM; IC50 (SAS): > 0.008 µM; IC50 (SNU-423): > 0.008 µM; IC50 (SW626): > 0.008 µM; IC50 (SW948): > 0.008 µM; IC50 (SiHa): > 0.008 µM; IC50 (T-24): > 0.008 µM; IC50 (A204): > 0.008 µM; IC50 (A-375): > 0.008 µM; IC50 (AU565): > 0.008 µM; IC50 (ASPC1): > 0.008 µM; IC50 (BC-3): > 0.008 µM; IC50 (BL-70): > 0.008 µM; IC50 (C32): > 0.008 µM; IC50 (CA46): > 0.008 µM; IC50 (CAL-54): > 0.008 µM; IC50 (UACC-62): > 0.008 µM; IC50 (VMRC-RCZ): > 0.008 µM; IC50 (WM-115): > 0.008 µM; IC50 (COLO-678): > 0.008 µM

**Q.** Which IC50 (Capan-2) does the source give for `C=C(c1ccc(C(=O)O)cc1)c1cc2c(cc1C)C(C)(C)CCC2(C)C` [BEXAROTENE] here?
**A.** > 8 µM

**Q.** What about the IC50 (D-542MG) of the same compound?
**A.** > 8000 nM

**Q.** What about the IC50 (DBTRG-05MG) of the same compound?
**A.** > 8 µM

**Q.** What about the IC50 (EGI-1) of the same compound?
**A.** > 8 µM

**Q.** What about the IC50 (FTC-133) of the same compound?
**A.** > 8 µM

**Q.** What about the IC50 (HCC1395) of the same compound?
**A.** > 8 µM

**Q.** And the IC50 (HCC1806)?
**A.** > 8 µM

**Q.** And the IC50 (HN)?
**A.** > 8 µM

**Q.** And the IC50 (HuP-T3)?
**A.** > 8 µM

**Q.** And the IC50 (JIYOYE)?
**A.** > 8 µM

**Q.** What about the IC50 (K052) of the same compound?
**A.** > 8 µM

**Q.** What about the IC50 (KU-19-19) of the same compound?
**A.** > 8 µM

**Q.** What about the IC50 (KYSE-270) of the same compound?
**A.** > 8 µM

**Q.** What about the IC50 (KYSE-510) of the same compound?
**A.** > 8 µM

**Q.** What about the IC50 (LOUCY) of the same compound?
**A.** > 8 µM

**Q.** And the IC50 (M059J)?
**A.** > 8000 nM

**Q.** What about the IC50 (MDA-MB-157) of the same compound?
**A.** > 8 µM

**Q.** And the IC50 (ME-180)?
**A.** > 8 µM

**Q.** And the IC50 (MEL-JUSO)?
**A.** > 8 µM

**Q.** What about the IC50 (NCI-H1623) of the same compound?
**A.** > 8 µM

**Q.** What about the IC50 (NCI-H2227) of the same compound?
**A.** > 8 µM

**Q.** And the IC50 (NCI-H2347)?
**A.** > 8 µM

**Q.** And the IC50 (NCI-H810)?
**A.** > 8 µM

**Q.** What about the IC50 (OAW-28) of the same compound?
**A.** > 8 µM

**Q.** And the IC50 (OE19)?
**A.** > 8 µM

**Q.** What about the IC50 (P31-FUJ) of the same compound?
**A.** > 8 µM

**Q.** What about the IC50 (PA-1) of the same compound?
**A.** > 8 µM

**Q.** And the IC50 (RPMI-6666)?
**A.** > 8 µM

**Q.** And the IC50 (SAS)?
**A.** > 8 µM

**Q.** And the IC50 (SNU-423)?
**A.** > 8 µM

**Q.** What about the IC50 (SW626) of the same compound?
**A.** > 8 µM

**Q.** What about the IC50 (SW948) of the same compound?
**A.** > 8 µM

**Q.** And the IC50 (SiHa)?
**A.** > 8 µM

**Q.** What about the IC50 (T-24) of the same compound?
**A.** > 8 µM

**Q.** What about the IC50 (A204) of the same compound?
**A.** > 8 µM

**Q.** And the IC50 (A-375)?
**A.** > 8 µM

**Q.** And the IC50 (AU565)?
**A.** > 8 µM

**Q.** And the IC50 (ASPC1)?
**A.** > 8 µM

**Q.** And the IC50 (BC-3)?
**A.** > 8 µM

**Q.** And the IC50 (BL-70)?
**A.** > 8 µM

**Q.** And the IC50 (C32)?
**A.** > 8 µM

**Q.** What about the IC50 (CA46) of the same compound?
**A.** > 8 µM

**Q.** And the IC50 (CAL-54)?
**A.** > 8 µM

**Q.** And the IC50 (UACC-62)?
**A.** > 8 µM

**Q.** And the IC50 (VMRC-RCZ)?
**A.** > 8 µM

**Q.** What about the IC50 (WM-115) of the same compound?
**A.** > 8 µM

**Q.** What about the IC50 (COLO-678) of the same compound?
**A.** > 8 µM
